Results on 25 compounds are retold here after patent US11708344B2, “Flavone derivatives for the treatment and prophylaxis of hepatitis B virus disease” (Hoffmann-La Roche Inc., priority 2018, dated 2023).

The first assay concerns HBeAg (surrogate marker for cccDNA) in HepDES19 cells. The experiment in a line: Engineered HepDES19 primary screen assay (HBeAg ELISA). It counts as cell-based, HBV. To be noted: HepDES19 cells, 5 days compound incubation, HBeAg ELISA; read-out: IC50 (HBeAg level, HepDES19 primary screen assay). The source says: The assay was employed to screen for novel cccDNA inhibitors. HepDES19 is a cccDNA-producing cell line. In this cell line, HBeAg in the cell culture supernatant as surrogate marker, as HBeAg production depends on cccDNA level and activity. HepDES19 is an engineered cell line which contains a 1.1 unit length HBV genome, and pgRNA transcription from the transgene is controlled by Tetracycline (Tet). In the absence of Tet, pgRNA transcription will be induced, but HBV e antigen (HBeAg) could not be produced from this pgRNA due to very short leader sequence before the HBeAg start codon and the start codon is disrupted. Only after cccDNA is formed, the missing leader sequence and start codon mutation would be restored from the 3′-terminal redundancy of pgRNA, and then HBeAg could be synthesized. Therefore, HBeAg could be used as a surrogate marker for cccDNA (Zhou, T. et al., Antiviral Res. (2006), 72(2), 116-124; Guo, H. et al., J. Virol. (2007), 81(22), 12472-12484).
HepDES19 cells were seeded at 2×10^6 cells per T150 flask and cultured with the culture medium (Dulbecco's Modified Eagle Medium: Nutrient Mixture F-12 [DMEM-F12, Gibco Cat. 11320-82], 10% Fetal Bovine Serum [FBS, Clontech Cat. 631101], 0.1 mM Non-Essential Amino Acids Solution [NEAA, Gibco Cat. 11140-050], 50 μg/mL Penicillin-Streptomycin [PS, Invitrogen Cat. 15140-163], 500 μg/mL Geneticin [G418, Invitrogen Cat. 10131-027]) containing 3 μg/mL Tet (Sigma, Cat. 87128) for 5 days. Cells were then seeded at 4×10^6 cells per T150 in the same culture medium as described above in the absence of Tet for 8 days. Cells were then harvested and frozen at density of 2×10^6 cells per mL. For compound testing, the frozen cells were thawed and seeded into 96-well plates at a density of 6×10^4 cells per well. At 24 hours after seeding, half log serial dilutions of compounds made with Dimethyl sulfoxide (DMSO, Sigma, Cat. D2650) were further diluted with the same culture medium as described above before they were added to the cells to reach desired final compound concentrations and 1% DMSO concentration. Plates were then incubated at 37° C. for another 5 days before measurement of HBeAg level and cell viability. […] HBeAg level were measured with enzyme-linked immunosorbent assay (ELISA) kit (Shanghai Kehua Diagnostic Medical Products Co., Ltd). Cell viability was assessed using Cell Counting Kit-8 (DonJindo, Cat. CK04-20). IC50 values were derived from the dose-response curve using 4 parameter logistic curve fit method.
The compounds of the present invention were tested for their capacity to inhibit extracellular HBeAg level as described herein.
(In general: An ELISA detects its analyte on a solid surface through an enzyme-linked reagent.)
As to `O=c1cc(-c2ccc(Br)cc2OCCO[C@H]2C[C@H](C(=O)O)C2)oc2c(Cl)ccc(C(F)(F)F)c12` [Example C049-B], the IC50 is 0.103 µM.

The assay is the same for the next values; noted with them: Hepatitis B virus, HepDES19, 120 h, read-out: IC50 (HBeAg level, HepDES19 primary screen assay), HepDES19 cells, 5 days compound incubation, HBeAg ELISA.
`COc1cccc(S(=O)(=O)N2C[C@@H](Oc3cc(C(F)(F)F)ccc3-c3cc(=O)c4cccc(Cl)c4o3)C[C@H]2C(=O)O)c1` [Example B079]: the IC50 is 1.52 µM.

With `COc1cc(O[C@H]2C[C@@H](C(=O)O)N(S(=O)(=O)c3ccccc3)C2)c(-c2cc(=O)c3cccc(Cl)c3o2)cc1OC` [Example B081], the 50% inhibitory concentration (IC50) came to 3.11 µM. Still for that read-out and setting: the same measure for `O=C(O)[C@@H]1C[C@H](Oc2cc(OC(F)(F)F)ccc2-c2cc(=O)c3cccc(Cl)c3o2)CN1S(=O)(=O)c1ccccc1` [Example B085, (2S,4S)-1-(benzenesulfonyl)-4-[2-(8-chloro-4-oxo-chromen-2-yl)-5-(trifluoromethoxy)phenoxy]pyrrolidine-2-carboxylic acid]: 4.57 µM; for `O=c1cc(-c2ccc(Br)cc2OCCO[C@H]2C[C@H](C(=O)O)C2)oc2c(Cl)cccc12` [Example C003-B, tram-3-[2-[5-bromo-2-(8-chloro-4-oxo-chromen-2-yl)phenoxy]ethoxy]cyclobutanecarboxylic acid]: 1.34 µM; for `O=C(O)C1CC(OCCOc2cc(Cl)ccc2-c2cc(=O)c3cccc(Cl)c3o2)C1` (stereo not shown) [Example C004, 3-[2-[5-chloro-2-(8-chloro-4-oxo-chromen-2-yl)phenoxy]ethoxy]cyclobutanecarboxylic acid]: 1.32 µM.

As to `Cc1ccc2c(=O)cc(-c3ccccc3OCCO[C@H]3C[C@@H](C(=O)O)C3)oc2c1Cl` [Example C029-A, Cis-3-[2-[2-(8-chloro-7-methyl-4-oxo-chromen-2-yl)phenoxy]ethoxy]cyclobutanecarboxylic acid], the IC50 came to 3.36 µM. In the case of `Cc1ccc2c(=O)cc(-c3ccccc3OCCO[C@H]3C[C@H](C(=O)O)C3)oc2c1Cl` [Example C029-B, Trans-3-[2-[2-(8-chloro-7-methyl-4-oxo-chromen-2-yl)phenoxy]ethoxy]cyclobutanecarboxylic acid], the IC50 came out at 1.32 µM. On the same count and under the same terms, the same measure for `O=c1cc(-c2ccc(Br)cc2OCCO[C@H]2C[C@@H](C(=O)O)C2)oc2c(Cl)c(F)ccc12` [Example C030-A, Cis-3-[2-[5-bromo-2-(8-chloro-7-fluoro-4-oxo-chromen-2-yl)phenoxy]ethoxy]cyclobutanecarboxylic acid]: 1.37 µM; for `O=c1cc(-c2ccc(Br)cc2OCCO[C@H]2C[C@H](C(=O)O)C2)oc2c(Cl)c(F)ccc12` [Example C030-B, Trans-3-[2-[5-bromo-2-(8-chloro-7-fluoro-4-oxo-chromen-2-yl)phenoxy]ethoxy]cyclobutanecarboxylic acid]: 12.8 µM; for `COc1cc(OCCO[C@H]2C[C@H](C(=O)O)C2)c(-c2cc(=O)c3cccc(Cl)c3o2)cc1Br` [Example C040-B, Trans-3-[2-[4-bromo-2-(8-chloro-4-oxo-chromen-2-yl)-5-methoxy-phenoxy]ethoxy]cyclobutanecarboxylic acid]: 17.1 µM. The same measure, in the same setting: the same measure for `COc1cc(OCCO[C@H]2C[C@H](C(=O)O)C2)c(-c2cc(=O)c3cccc(Cl)c3o2)cc1C` [Example C041-B, Trans-3-[2-[2-(8-chloro-4-oxo-chromen-2-yl)-5-methoxy-4-methyl-phenoxy]ethoxy]cyclobutanecarboxylic acid]: 9.64 µM. On the same count and under the same terms, next, `O=c1cc(-c2ccc(Br)cc2OCCO[C@H]2C[C@@H](C(=O)O)C2)oc2c(Cl)c(C(F)(F)F)ccc12` [Example C048-A, Cis-3-[2-[5-bromo-2-[8-chloro-4-oxo-7-(trifluoromethyl)chromen-2-yl]phenoxy]ethoxy]cyclobutanecarboxylic acid]: 5.12 µM; `O=c1cc(-c2cc(Br)ccc2OCCO[C@H]2C[C@H](C(=O)O)C2)oc2c(Cl)cc(F)cc12` [Example C053-B, Trans-3-[2-[4-bromo-2-(8-chloro-6-fluoro-4-oxo-chromen-2-yl)phenoxy]ethoxy]cyclobutanecarboxylic acid]: 5.59 µM; `O=c1cc(-c2ccc(Br)cc2OCCCO[C@H]2C[C@H](C(=O)O)C2)oc2c(Cl)cccc12` [Example C056-B, Trans-3-[3-[5-bromo-2-(8-chloro-4-oxo-chromen-2-yl)phenoxy]propoxy]cyclobutanecarboxylic acid]: 2.18 µM. With `O=c1cc(-c2ccccc2OCCO[C@H]2C[C@@H](C(=O)O)C2)oc2c(Cl)c(C3CC3)ccc12` [Example C058-A, Cis-3-[2-[2-(8-chloro-7-cyclopropyl-4-oxo-chromen-2-yl)phenoxy]ethoxy]cyclobutanecarboxylic acid], the IC50 is 5.1 µM. On the same count and under the same terms, next, `O=C(O)C1CC(OCCOc2cnccc2-c2cc(=O)c3cccc(Cl)c3o2)C1` (stereo not shown) [Example C061, 3-[2-[[4-(8-chloro-4-oxo-chromen-2-yl)-3-pyridyl]oxy]ethoxy]cyclobutanecarboxylic acid]: 3.35 µM. The same measure, in the same setting: next, `COC(=O)C1CC(OCCOc2cc(N3CCOC3=O)ccc2-c2cc(=O)c3cccc(Cl)c3o2)C1` (stereo not shown) [Example C062a, methyl 3-[2-[2-(8-chloro-4-oxo-chromen-2-yl)-5-(2-oxooxazolidin-3-yl)phenoxy]ethoxy]cyclobutanecarboxylate]: 2.45 µM. Consider `O=C1CCCN1c1ccc(-c2cc(=O)c3cccc(Cl)c3o2)c(OCCO[C@H]2C[C@H](C(=O)O)C2)c1` [Example C063-B, Trans-3-[2-[2-(8-chloro-4-oxo-chromen-2-yl)-5-(2-oxopyrrolidin-1-yl)phenoxy]ethoxy]cyclobutanecarboxylic acid], for which the IC50 stood at 14.9 µM.

Consider `CSc1ccc(-c2cc(=O)c3cccc(Cl)c3o2)c(OCCO[C@H]2C[C@@H](C(=O)O)C2)c1` [Example C064-A, Cis-3-[2-[2-(8-chloro-4-oxo-chromen-2-yl)-5-methylsulfanyl-phenoxy]ethoxy]cyclobutanecarboxylic acid], for which the IC50 was found to be 1.94 µM.

In the case of `CSc1ccc(-c2cc(=O)c3cccc(Cl)c3o2)c(OCCO[C@H]2C[C@H](C(=O)O)C2)c1` [Example C064-B, trans-3-[2-[2-(8-chloro-4-oxo-chromen-2-yl)-5-methylsulfanyl-phenoxy]ethoxy]cyclobutanecarboxylic acid], the IC50 worked out at 2.93 µM. Same read-out and setting: the same measure for `COC(=O)[C@H]1C[C@H](OCCOc2cc(S(C)(=O)=O)ccc2-c2cc(=O)c3cccc(Cl)c3o2)C1` [Example C065-B, Trans-methyl 3-[2-[2-(8-chloro-4-oxo-chromen-2-yl)-5-methylsulfonyl-phenoxy]ethoxy]cyclobutanecarboxylate]: 12.2 µM. As to `O=c1cc(-c2ccc(-c3nccs3)cc2OCCO[C@H]2C[C@@H](C(=O)O)C2)oc2c(Cl)cccc12` [Example C066-A, Cis-3-[2-[2-(8-chloro-4-oxo-chromen-2-yl)-5-thiazol-2-yl-phenoxy]ethoxy]cyclobutanecarboxylic acid], the IC50 is 1.02 µM. On the same count and under the same terms, the same measure for `O=c1cc(-c2ccc(-c3nccs3)cc2OCCO[C@H]2C[C@H](C(=O)O)C2)oc2c(Cl)cccc12` [Example C066-B, Trans-3-[2-[2-(8-chloro-4-oxo-chromen-2-yl)-5-thiazol-2-yl-phenoxy]ethoxy]cyclobutanecarboxylic acid]: 1.02 µM; for `O=c1cc(-c2ccc(C3CC3)cc2OCCO[C@H]2C[C@@H](C(=O)O)C2)oc2c(Cl)cccc12` [Example C069-A, Cis-3-[2-[2-(8-chloro-4-oxo-chromen-2-yl)-5-cyclopropyl-phenoxy]ethoxy]cyclobutanecarboxylic acid]: 5.09 µM.

A word on the IC50: it is the concentration at which inhibition is half-maximal.
